As a reminder, the EC50 is the concentration at which the effect is half-maximal.

This note sets out measurements from patent US20160200734A1, “CARBOXYLIC ACID COMPOUNDS IN TREATMENT OF DIABETES MELLITUS” (FUJIAN HAIXI PHARMACEUTICALS CO., LTD., priority 2013, published 2016).

T1 sequence (O14842 whole entry, species assumed): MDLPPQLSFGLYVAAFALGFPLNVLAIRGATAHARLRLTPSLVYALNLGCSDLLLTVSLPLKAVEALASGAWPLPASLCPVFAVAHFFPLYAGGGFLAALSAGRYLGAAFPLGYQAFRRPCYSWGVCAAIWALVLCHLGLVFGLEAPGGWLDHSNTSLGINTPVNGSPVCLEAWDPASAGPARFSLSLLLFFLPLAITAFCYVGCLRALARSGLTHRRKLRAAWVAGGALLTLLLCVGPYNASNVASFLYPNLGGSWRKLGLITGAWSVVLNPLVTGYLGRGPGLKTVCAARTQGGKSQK

The experiment addresses T1, GPR40 (Homo sapiens, UniProt O14842).
T1 construct: expressed in transfected cells
Put plainly: GPR40 Activation Assay (Wash Free Fluo-8 Calcium Assay). It is filed as cell-based. The settings on record: HEK293 cells stably expressing GPR40; fluorescence intensity Ex=494 nm, Em=516 nm. Here is the method:
This test procedure substantially carried out in accordance with the HDB company's Wash Free Fluo-8 Calcium Assay Kits. HEK293 cells stably expressing GPR40 were selected in a media containing Neomycin/G418. The cells were plated at a concentration of 30 uL 15,000 cells per well in black 384-well clear bottom tissue culture treated plates. The cells were incubated for 24 h in a incubator with 5% CO2.
According to Wash Free Fluo-8 Calcium Assay Kits operating instruction, one component A was dissolved in 210 uL DMSO, one component B was dissolved in 2.4 mL component C. After a 200 mM probenecid solution was prepared, 40 μL component A, 400 μL component B, 200 μL 200 mM probenecid and […] component C were mixed to a 20 mL test solution.
After removal of medium from the black 384-well dear bottom tissue culture treated plates by centrifuge, the test solution was added at 30 uL/well and the plates were incubated for 60 mins at 37° C. All test compounds were diluted to appropriate concentrations in HBSS buffer. Compounds were added to the cells and the wells were read fluorescence intensity at Ex=494 nm, Em=516 nm and readings were taken for 2 mins with an interval of 1 s. The compounds dose-dependent curve and EC50 were obtained by the Graphpad Prism4 software.
Take `CSCCCOc1cc(C)c(-c2cccc3c2CCC3Oc2ccc3c(c2)SC[C@H]3CC(=O)O)c(C)c1` (stereo partly drawn) [Example 52, 2-((3S)-6-((4-(2,6-dimethyl-4-(3-(metylthio)porpoxy)phenyl)-2,3-dihydro-1H-inden-1-yl)oxy)-2,3-dihydrobenzo[b]thiophen-3-yl)acetic acid]: the EC50 was determined as 1260 nM. With `COCCCOc1cc(C)c(-c2cccc3c2CCC3Oc2ccc3c(c2)SC[C@H]3CC(=O)O)c(C)c1` (stereo partly drawn) [Example 53, 2-((3S)-6-((4-(4-(3-methoxypropoxy)-2,6-dlmethylphenyl)-2,3-dihydro-1H-inden-1-yl)oxy)-2,3-dihydrobenzo[b]thiophen-3-yl)acetic acid], the EC50 came to 997 nM. The result for `Cc1cc(OCCCS(C)(=O)=O)cc(C)c1-c1cccc2c1CCC2Oc1ccc2c(c1)SC[C@H]2CC(=O)O` (stereo partly drawn) [Example 51, 2-((3S)-6-((4-(2,6-dimethyl-4-(3-(methylsulfonyl)propoxy)phenyl)-2,3-dihydro-1H-inden-1-yl)oxy)-2,3-dihydrobenzo[b]thiophen-3-yl)acetic acid] reads 878 nM.
